What all share (details): Compound concentration 10 µM
Experiment [1] addresses T1, Alpha-1B adrenergic receptor (Homo sapiens) (UniProt P35368).
T1 sequence (whole entry): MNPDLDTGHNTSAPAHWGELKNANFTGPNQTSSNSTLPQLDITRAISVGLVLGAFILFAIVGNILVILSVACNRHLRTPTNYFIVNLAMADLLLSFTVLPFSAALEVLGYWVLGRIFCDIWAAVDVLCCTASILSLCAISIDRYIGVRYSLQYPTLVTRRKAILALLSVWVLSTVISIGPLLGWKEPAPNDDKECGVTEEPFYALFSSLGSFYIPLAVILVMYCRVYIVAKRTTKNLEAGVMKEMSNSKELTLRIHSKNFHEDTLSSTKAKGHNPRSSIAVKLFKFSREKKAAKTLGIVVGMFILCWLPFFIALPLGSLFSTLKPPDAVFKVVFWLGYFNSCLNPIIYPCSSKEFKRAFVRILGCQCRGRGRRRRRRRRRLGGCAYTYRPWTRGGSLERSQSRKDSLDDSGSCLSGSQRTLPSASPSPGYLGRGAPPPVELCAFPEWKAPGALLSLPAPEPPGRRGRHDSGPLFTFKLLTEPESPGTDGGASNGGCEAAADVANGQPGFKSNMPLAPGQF
Description: PDSP Primary Binding target: ADRA1B - Compounds are tested at 10 uM concentration, plate are incubated at room temperature in the dark for 90 minutes. Reaction are stopped by vacuum filtration onto 0.3% polyethyleneimine soaked filter mats using Filtermate harvester. Scintilation cocktail is then melted onto microwave-dried filters on a hot plate and the radio activity is counted in Microbia counter.

For experiment [2], the target named is T2, Alpha-2B adrenergic receptor (Homo sapiens) (UniProt P18089).
T2 sequence (whole entry): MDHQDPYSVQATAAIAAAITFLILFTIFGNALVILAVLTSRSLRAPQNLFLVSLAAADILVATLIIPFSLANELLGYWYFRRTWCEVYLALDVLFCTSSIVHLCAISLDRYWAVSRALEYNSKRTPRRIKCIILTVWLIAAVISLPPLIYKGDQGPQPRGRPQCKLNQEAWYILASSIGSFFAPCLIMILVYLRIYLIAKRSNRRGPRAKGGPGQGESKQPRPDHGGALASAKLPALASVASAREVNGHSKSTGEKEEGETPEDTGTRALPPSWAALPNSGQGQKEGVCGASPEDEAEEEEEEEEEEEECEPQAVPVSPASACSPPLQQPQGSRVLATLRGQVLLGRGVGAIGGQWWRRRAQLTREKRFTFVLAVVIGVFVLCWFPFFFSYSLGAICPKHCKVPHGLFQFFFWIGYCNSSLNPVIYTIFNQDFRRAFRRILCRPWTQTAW
Description: PDSP Primary Binding target: ADRA2B - Compounds are tested at 10 uM concentration, plate are incubated at room temperature in the dark for 90 minutes. Reaction are stopped by vacuum filtration onto 0.3% polyethyleneimine soaked filter mats using Filtermate harvester. Scintilation cocktail is then melted onto microwave-dried filters on a hot plate and the radio activity is counted in Microbia counter.

In experiment [3] the target is T3, Muscarinic acetylcholine receptor M2 (Homo sapiens) (UniProt P08172).
T3 sequence (whole entry): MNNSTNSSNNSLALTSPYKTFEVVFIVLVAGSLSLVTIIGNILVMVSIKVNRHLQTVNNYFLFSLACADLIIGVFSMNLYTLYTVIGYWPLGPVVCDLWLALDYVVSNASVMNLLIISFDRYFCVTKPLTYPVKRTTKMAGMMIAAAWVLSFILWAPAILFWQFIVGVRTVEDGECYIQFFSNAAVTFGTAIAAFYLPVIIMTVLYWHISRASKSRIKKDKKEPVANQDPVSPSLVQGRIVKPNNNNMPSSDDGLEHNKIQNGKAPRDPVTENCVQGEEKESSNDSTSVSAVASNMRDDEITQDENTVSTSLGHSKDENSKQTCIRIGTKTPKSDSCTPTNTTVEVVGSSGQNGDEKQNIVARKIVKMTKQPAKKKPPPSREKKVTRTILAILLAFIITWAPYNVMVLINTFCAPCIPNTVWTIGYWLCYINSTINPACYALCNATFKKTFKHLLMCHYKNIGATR
Description: PDSP Primary Binding target: CHRM2 - Compounds are tested at 10 uM concentration, plate are incubated at room temperature in the dark for 90 minutes. Reaction are stopped by vacuum filtration onto 0.3% polyethyleneimine soaked filter mats using Filtermate harvester. Scintilation cocktail is then melted onto microwave-dried filters on a hot plate and the radio activity is counted in Microbia counter.

For experiment [4], the target named is 5-hydroxytryptamine receptor 6 (Homo sapiens) (UniProt P50406).
5-hydroxytryptamine receptor 6 (Homo sapiens), sequence (P50406 whole entry): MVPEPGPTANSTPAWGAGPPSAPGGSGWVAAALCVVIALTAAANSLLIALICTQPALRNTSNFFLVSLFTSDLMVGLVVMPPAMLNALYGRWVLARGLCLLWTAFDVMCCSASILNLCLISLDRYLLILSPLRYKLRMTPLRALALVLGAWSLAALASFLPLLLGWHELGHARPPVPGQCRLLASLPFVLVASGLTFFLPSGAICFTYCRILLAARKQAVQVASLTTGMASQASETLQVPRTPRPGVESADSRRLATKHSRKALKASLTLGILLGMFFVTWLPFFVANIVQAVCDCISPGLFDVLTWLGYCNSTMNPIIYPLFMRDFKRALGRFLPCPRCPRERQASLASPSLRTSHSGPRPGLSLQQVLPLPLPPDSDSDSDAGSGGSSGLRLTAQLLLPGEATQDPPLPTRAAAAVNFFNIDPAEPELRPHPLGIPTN
Description: PDSP Primary Binding target: HTR6 - Compounds are tested at 10 uM concentration, plate are incubated at room temperature in the dark for 90 minutes. Reaction are stopped by vacuum filtration onto 0.3% polyethyleneimine soaked filter mats using Filtermate harvester. Scintilation cocktail is then melted onto microwave-dried filters on a hot plate and the radio activity is counted in Microbia counter.
The target in experiment [5] is Delta-type opioid receptor (Homo sapiens) (UniProt P41143).
Delta-type opioid receptor (Homo sapiens), sequence (P41143 whole entry): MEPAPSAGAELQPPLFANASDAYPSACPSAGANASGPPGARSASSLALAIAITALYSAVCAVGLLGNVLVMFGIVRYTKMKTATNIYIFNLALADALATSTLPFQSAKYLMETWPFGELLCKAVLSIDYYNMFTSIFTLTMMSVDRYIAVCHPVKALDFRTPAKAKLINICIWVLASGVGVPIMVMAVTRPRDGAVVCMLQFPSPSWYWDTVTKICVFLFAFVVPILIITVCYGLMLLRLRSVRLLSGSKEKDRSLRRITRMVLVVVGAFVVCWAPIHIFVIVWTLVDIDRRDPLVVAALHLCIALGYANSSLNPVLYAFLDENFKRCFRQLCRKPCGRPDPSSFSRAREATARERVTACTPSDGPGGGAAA
Description: PDSP Primary Binding target: OPRD1 - Compounds are tested at 10 uM concentration, plate are incubated at room temperature in the dark for 90 minutes. Reaction are stopped by vacuum filtration onto 0.3% polyethyleneimine soaked filter mats using Filtermate harvester. Scintilation cocktail is then melted onto microwave-dried filters on a hot plate and the radio activity is counted in Microbia counter.
The target of experiment [6] is T4, Alpha-1D adrenergic receptor (Homo sapiens) (UniProt P25100).
T4 sequence (whole entry): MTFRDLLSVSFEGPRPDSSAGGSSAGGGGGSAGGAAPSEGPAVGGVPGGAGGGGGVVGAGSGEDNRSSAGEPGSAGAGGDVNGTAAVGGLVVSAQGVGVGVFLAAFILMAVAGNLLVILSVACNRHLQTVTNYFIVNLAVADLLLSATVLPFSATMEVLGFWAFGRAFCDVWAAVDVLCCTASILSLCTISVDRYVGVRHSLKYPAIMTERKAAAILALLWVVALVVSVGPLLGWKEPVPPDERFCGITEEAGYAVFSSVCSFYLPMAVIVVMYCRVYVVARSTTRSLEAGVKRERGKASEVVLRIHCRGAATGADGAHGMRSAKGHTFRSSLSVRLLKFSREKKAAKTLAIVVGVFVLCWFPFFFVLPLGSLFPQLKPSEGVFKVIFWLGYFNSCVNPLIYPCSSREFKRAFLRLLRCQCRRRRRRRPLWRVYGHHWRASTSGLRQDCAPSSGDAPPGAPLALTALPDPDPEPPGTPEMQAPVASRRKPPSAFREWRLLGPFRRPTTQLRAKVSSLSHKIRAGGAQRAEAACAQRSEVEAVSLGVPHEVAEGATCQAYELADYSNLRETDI
Description: PDSP Primary Binding target: ADRA1D - Compounds are tested at 10 uM concentration, plate are incubated at room temperature in the dark for 90 minutes. Reaction are stopped by vacuum filtration onto 0.3% polyethyleneimine soaked filter mats using Filtermate harvester. Scintilation cocktail is then melted onto microwave-dried filters on a hot plate and the radio activity is counted in Microbia counter.

Experiment [7] deals with T5, Alpha-2A adrenergic receptor (Homo sapiens) (UniProt P08913).
T5 sequence (whole entry): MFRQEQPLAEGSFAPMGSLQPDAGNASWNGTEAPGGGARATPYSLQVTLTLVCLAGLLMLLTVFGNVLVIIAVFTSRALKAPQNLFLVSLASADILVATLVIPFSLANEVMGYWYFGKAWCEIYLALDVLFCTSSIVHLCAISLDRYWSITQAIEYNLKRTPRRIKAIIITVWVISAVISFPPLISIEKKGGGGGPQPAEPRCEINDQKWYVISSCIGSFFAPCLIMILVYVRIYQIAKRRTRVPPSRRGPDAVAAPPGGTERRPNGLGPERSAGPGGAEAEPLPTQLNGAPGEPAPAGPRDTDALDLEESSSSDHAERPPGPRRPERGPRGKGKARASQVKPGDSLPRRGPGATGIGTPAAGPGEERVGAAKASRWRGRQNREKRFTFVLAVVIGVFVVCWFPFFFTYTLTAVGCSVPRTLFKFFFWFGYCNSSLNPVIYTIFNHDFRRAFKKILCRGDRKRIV
Description: PDSP Primary Binding target: ADRA2A - Compounds are tested at 10 uM concentration, plate are incubated at room temperature in the dark for 90 minutes. Reaction are stopped by vacuum filtration onto 0.3% polyethyleneimine soaked filter mats using Filtermate harvester. Scintilation cocktail is then melted onto microwave-dried filters on a hot plate and the radio activity is counted in Microbia counter.

In experiment [8] the target is Mu-type opioid receptor (Homo sapiens) (UniProt P35372).
Mu-type opioid receptor (Homo sapiens), sequence (P35372 whole entry): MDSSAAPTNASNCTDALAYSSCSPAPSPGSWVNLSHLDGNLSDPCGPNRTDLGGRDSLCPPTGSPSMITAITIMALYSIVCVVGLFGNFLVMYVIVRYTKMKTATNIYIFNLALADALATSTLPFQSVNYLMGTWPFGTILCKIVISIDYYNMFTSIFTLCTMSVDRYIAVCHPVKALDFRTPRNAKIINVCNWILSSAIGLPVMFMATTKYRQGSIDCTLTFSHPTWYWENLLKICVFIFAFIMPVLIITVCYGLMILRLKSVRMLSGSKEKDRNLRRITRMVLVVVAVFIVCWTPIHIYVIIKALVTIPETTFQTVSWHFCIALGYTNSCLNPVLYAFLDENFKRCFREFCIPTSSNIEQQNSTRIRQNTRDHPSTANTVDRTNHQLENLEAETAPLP
Description: PDSP Primary Binding target: OPRM1 - Compounds are tested at 10 uM concentration, plate are incubated at room temperature in the dark for 90 minutes. Reaction are stopped by vacuum filtration onto 0.3% polyethyleneimine soaked filter mats using Filtermate harvester. Scintilation cocktail is then melted onto microwave-dried filters on a hot plate and the radio activity is counted in Microbia counter.

By inhibition is commonly meant the drop in the measured response relative to a control, in per cent.

For `N#Cc1c(O)nc(SCc2cccc(F)c2F)nc1C1CC1`, the inhibition in experiment [1] is -9.08%; in experiment [2], -6.93%; in experiment [3], 28.1%; in experiment [4] it was 9.18%; in experiment [5], 7.91%.

For `C[C@]1(C(=O)N(CCCC(=O)O)Cc2cccc(Cl)c2)CCN1C(=O)c1csc2ccccc12`, the inhibition in experiment [1] is -9.59%; in experiment [6], 3.17%; in experiment [7], 10.9%; in experiment [2], 13.3%; in experiment [4], 3.68%; in experiment [5] it was -1.78%.

Take `CCCn1c(=O)c2nc(C34CC5CC(CC3C5)C4)[nH]c2n(CCC)c1=O`: the inhibition in experiment [6] was -8.33%; in experiment [7], 10%; in experiment [2], 6.22%; in experiment [4], -4.94%; in experiment [5], 11.3%; in experiment [8], 9.1%.

As to `Clc1cccc(Cl)c1NC1=NCCN1`, the inhibition is 65.3% in experiment [1]; 66.8% in experiment [6]; 103% in experiment [7]; -4.61% in experiment [5]; 3.84% in experiment [8].

Turning to `CCC(=O)NCC[C@@H]1CCc2ccc3c(c21)CCO3`, the inhibition in experiment [1] is -0.82%; in experiment [6], 10.9%; in experiment [7] it was 18.4%; in experiment [2] it was 22%; in experiment [5], -5.97%; in experiment [8] it was -7.21%.

In the case of `CC(C)(C(=O)O)c1ccc(C(O)CCCN2CCC(C(O)(c3ccccc3)c3ccccc3)CC2)cc1` (stereo not given), the inhibition in experiment [1] is 2.41%; in experiment [6], -2.43%; in experiment [7] it was -4.3%; in experiment [4] it was -8.41%.

Consider `CCc1nn2c(C)cc(C)nc2c1Cc1ccc(-c2nnc(C3CCNCC3)o2)cc1`, for which the inhibition in experiment [1] is -7.24%; in experiment [6], -0.67%; in experiment [7], 42.9%; in experiment [2] it was 27.4%; in experiment [4], 14.4%; in experiment [5], -1.19%. In experiment [8], the inhibition is 50.7%.

`CC1CCN(CC[C@H]2CCCN2S(=O)(=O)c2cccc(O)c2)CC1`: the inhibition is -3.56% in experiment [1]; 65.6% in experiment [7]; 51% in experiment [2]; 7.91% in experiment [5]; 62.9% in experiment [8].

Turning to `COc1ccc2[nH]cc(CCNC(C)=O)c2c1`, the inhibition was 1.22% in experiment [1], -5.37% in experiment [6], 8.96% in experiment [7] and -3.9% in experiment [5].

Turning to `CNC[C@H](O)c1ccc(O)c(O)c1`, the inhibition in experiment [1] is 2.3%; in experiment [6], 12.1%; in experiment [7] it was 49.1%; in experiment [5], 6.63%; in experiment [8], -2.25%.

In the case of `CC(C)Oc1ccccc1C(=O)Nc1ccccc1C(=O)Nc1cccc(S(=O)(=O)C(F)(F)F)c1`, the inhibition in experiment [1] was -9.86%; in experiment [3], -6.99%; in experiment [4], 36.8%; in experiment [5], -2.57%; in experiment [8], -7.51%.

Take `Cc1cc(C)c(N)c(C#Cc2cccc(F)c2)n1`: the inhibition is -8.91% in experiment [1]; 28.9% in experiment [6]; 4.3% in experiment [7]; 12.9% in experiment [2]; 16.2% in experiment [4]; -1.56% in experiment [5]. For the same molecule, the inhibition in experiment [8] was 2.84%.

On to `Brc1c(NC2=NCCN2)ccc2nccnc12`, for which the inhibition in experiment [1] was 55.7%; in experiment [6] it was 59%; in experiment [7], 103%; in experiment [4], -2.59%; in experiment [5] it was 1.24%; in experiment [8], 0.59%.

Consider `COC(=O)[C@H]1[C@H]2C[C@H]3c4[nH]c5ccccc5c4CCN3C[C@H]2CC[C@@H]1O`, for which the inhibition in experiment [1] is 58.4%; in experiment [6] it was 58.7%; in experiment [7] it was 98.3%; in experiment [4] it was 85.3%; in experiment [5] it was -0.55%; in experiment [8] it was 28.7%.

Take `CCOC(=O)c1cc(C#N)c(N2CCC(C(=O)NS(=O)(=O)Cc3ccccc3)CC2)nc1C`: the inhibition in experiment [1] was -8.97%; in experiment [6], 29.5%; in experiment [2] it was -7.37%; in experiment [3] it was 68.1%; in experiment [4], 9.24%; in experiment [5], -8.38%. Further, the inhibition in experiment [8] was 4.87%.

As to `CC(C)NC(=O)c1ccc(C#Cc2ccncc2)cn1`, the inhibition in experiment [6] is 13.3%; in experiment [2], -0.82%; in experiment [3], 53.1%; in experiment [4], -2.79%; in experiment [5], -3.71%; in experiment [8], 0.15%.

With `O=C(O)COc1cccc(CN(Cc2ccc(-n3cccn3)cc2)S(=O)(=O)c2cccnc2)c1`, the inhibition is -5.67% in experiment [1]; -8.07% in experiment [7]; -5.85% in experiment [2]; -0.81% in experiment [4]; 22.4% in experiment [5]; -4.37% in experiment [8].

Take `N#Cc1c(N)nc(SCc2csc(-c3ccc(Cl)cc3)n2)c(C#N)c1-c1ccc(OCCO)cc1`: the inhibition in experiment [1] is 7.17%; in experiment [6], 6.13%; in experiment [7] it was 26.7%; in experiment [2], 2.13%.

Take `O=C1N/C(=N/c2ccccc2F)S/C1=C\c1ccc(C(=O)O)cc1`: the inhibition was -7.72% in experiment [2], 24.9% in experiment [4], -1.84% in experiment [5] and 56% in experiment [8].

In the case of `COc1cccc(-c2c(C)n(Cc3c(F)cccc3C(F)(F)F)c(=O)n(C[C@H](NCCCC(=O)O)c3ccccc3)c2=O)c1F`, the inhibition in experiment [6] was -7.43%; in experiment [2], -2.07%; in experiment [3], 3.22%; in experiment [4], -1.04%; in experiment [5], 7.27%; in experiment [8], 11.9%.

The values are drawn from ChEMBL document CHEMBL5442219.
